Consider nine compounds from patent US9199983B2, “3-aryl-6-aryl-[1,2,4]triazolo[4,3-α]pyridines as inhibitors of cell proliferation and the use thereof” (priority 2010, dated 2015).

In assay [1] the test system is mouse melanoma cell line B16F10. The assay can be described thus: MTT cancer cell cytotoxicity assay, B16F10. It counts as cell-based. As to conditions: Mus musculus, B16-F10, B16F10 cells, 48-72 h. As for the experimental part: Identification of 3-(2-methoxyphenyl)-6-(4-methoxyphenyl)-[1,2,4]triazolo[4,3-a]pyridine and analogs as inhibitors of cell proliferation that were evaluated with standard MTT cancer cell cytotoxicity assay (IC50)
Human lung cancer cell line A549, breast cancer cell line T47D, liver cancer cell lines HepG2 and SMMC7721 as well as a mouse melanoma cell line B16F10 were used in the study. The cells were cultured in corresponding growth media recommended by American Type Culture Collection (ATCC) with the supplementation of penicillin G (100 U/ml)/streptomycin (100 µg/ml), and 10% fetal bovine serum (Hangzhou Sijiqing Biological Engineering Materials, Co., Ltd. China) at 37° C. in a humidified atmosphere containing 5% CO2. Cells at about 80% confluency were harvested by trypsinization. Cells were centrifuged, re-suspended in fresh growth media and counted. Corresponding numbers of cells were seeded to 96-well cell culture plates (HepG2 cell, T-47D and A549 cells at 3000 cells/well, SMMC-7721 cells at 5000 cells/well and B16F10 cells at 2000 cells/well) in a total volume of […]. Cells were incubated in CO2 incubator over night to allow the cells to attach. In next day, […] of medium containing testing (from 10 μM to 1 nM) or reference compounds was added to each well of the cells. Media without compound were used as 100% control. Cells were treated with each concentration of compounds in triplicates to ensure data accuracy. Cells were incubated with compounds in CO2 incubator for an additional 48-72 h at 37° C. After incubation, cells were removed from the CO2 incubator and […] of 5 mg/ml MTT (3-(4,5-dimethylthiazole-2-yl)-2,5-diphenyltetrazoliumbromide, Sigma) solution in PBS was added to each well. Cells were returned to CO2 incubator and incubated for additional 4 h. After the incubation, media were removed by aspiration and […] DMSO was added to each well. Plates were sealed with aluminum foil and shaked mildly on an orbital shaker for 10 min at room temperature. The absorption was measured at 550 nm with a plate reader (Varioskan Flash, Thermo Fisher Scientific) with 660 nm reading used as background control. The relative absorbance readings were calculated by subtracting readings at 660 nm from that at 550 nm. The relative absorbance was plotted again the concentrations of the testing compounds and the plots were fitted with a one-site lg(IC50) equation using Prism 5 software (GraphPad Software, Inc). The equation used in the curve fitting is as follows: relative absorbance reading=background reading+(maximal reading−brackground reading)/(1+10 ^(compound concentration-log IC50)). The background reading used in the calculation was obtained with 100% cell death using a reference anticancer drug, whereas the maximal reading was obtained in the well with no added compound. The IC50 value calculated from the equation represents the cytotoxic potency of a particular compound.

The subject of assay [2] is caspase-3 activation. The assay can be described thus: Caspase-3 activation (apoptosis induction) in A549 cells. It counts as cell-based. As to conditions: Homo sapiens, A-549 cells, 24 h treatment, read-out: EC50 to induce caspase-3 activation, A-549. The procedure: (§1) Identification of 3-(2-methoxyphenyl)-6-(4-methoxyphenyl)-[1,2,4]triazolo[4,3-a]pyridine and analogs as inducers of apoptosis in solid tumor cells
(§2) Human breast cancer cell line T-47D and lung cancer cell line A549, growing in DMEM/F12+10% FBS media were seeded to a density of 20000 cells/well in 96-well cell culture plate and grew overnight (18-24 h) in CO2 cell culture incubator at 37° C. Next day the medium were removed by aspiration and […] fresh growth media was added to each well followed by […] of growth media containing 10× concentration of reference or testing compounds with 10% DMSO. Twenty four hours later, cell culture plates were centrifuged at 1000 g for 5 min and the supernatant was removed by emptying contents into a reservoir. Fifty μl of Lysis Buffer (10 mM Tris, pH7.5, 0.1M NaCl, 1 Mm EDTA, 0.01% Triton X-100) was added to each well and the plates were incubated with gentle agitation on an orbital shaker at 4° C. for 30 min. The plates were then centrifuged at 1000 g for 10 min at 4° C. and 20 μl of the supernatant was transferred from each well to a corresponding well in a black 384-well. Twenty μl of caspase-3 assay buffer (20 mM PIPES, pH7.4, 4 Mm EDTA and 0.2% CHAPS) containing 20 μM fluorogenic caspase-3 substrate ((Ac-DEVD)2-R110, AnaSpec Cat #60304-5) was added to each well. The samples were mixed by agitation and incubated at 37° C. for 3 h. The fluorescent intensity of each well was read on a fluorescent plate reader (Varioskan Flash, Thermo Fisher Scientific) with excitation wavelength at 496 nm and emission wavelength at 520 nm. The activity of compounds on caspase-3 activation was determined by plotting the relative fluorescent unit (RFU) against the testing concentrations of the compounds. The EC50 values were determined by fitting the above responding curves into Prism sigmoidal dose-response equation (GraphPad Software, Inc).

Assay [3] deals with Human lung cancer cell line A549. The assay can be described thus: MTT cancer cell cytotoxicity assay, A549. The settings on record: Homo sapiens, A549 cells, 48-72 h. The assay is classed as cell-based. A digest of the protocol:
(§3)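 Seeding: HepG2 and A549 at 3000, SMMC7721 at 5000, B16F10 at 2000 cells/well, attached overnight. Compounds (10 μM to 1 nM, triplicate) were applied for 48-72 h at 37 °C, followed by 4 h MTT. A550 minus A660 was fitted for IC50, with untreated wells as maximum and reference-drug total kill as background.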

In assay [4] the test system is liver cancer cell line HepG2. The assay can be described thus: MTT cancer cell cytotoxicity assay, HepG2. It counts as cell-based, human. The settings on record: Homo sapiens, HepG2 cells, 48-72 h. Put shortly:
as §3

Assay [5] has as its system breast cancer cell line T47D. The assay is described as follows: MTT cancer cell cytotoxicity assay, T47D. It counts as cell-based, human. As to conditions: Homo sapiens, T47D cells, 48-72 h. Put shortly:
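Human T47D breast cancer cells, cultured per ATCC recommendations with 10% fetal bovine serum and penicillin/streptomycin, were plated at 3000 cells/well in 96-well plates. After overnight attachment they were exposed in triplicate to compounds (10 μM to 1 nM) for 48-72 h. MTT was then added for 4 h and the formazan dissolved in DMSO. Absorbance at 550 nm minus 660 nm was fitted in Prism 5 to give IC50.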

Assay [6] deals with caspase-3 activation. The assay can be described thus: Caspase-3 activation (apoptosis induction) in T-47D cells. The settings on record: Homo sapiens; T47D cells, 24 h treatment; read-out: EC50 to induce caspase-3 activation, T47D. The assay is classed as cell-based. As for the experimental part:
as §1, §2

In assay [7] the test system is liver cancer cell line SMMC7721. The assay is described as follows: MTT cancer cell cytotoxicity assay, SMMC7721. It counts as cell-based, human. As to conditions: Homo sapiens, SMMC-7721, SMMC7721 cells, 48-72 h. Put shortly:
as §3

Regarding `COc1ccc(-c2ccc3nnc(-c4ccccc4OC)n3c2)cc1` [Example 1, 3-(2-Methoxyphenyl)-6-(4-methoxyphenyl)-[1,2,4]triazolo[4,3-a]pyridine], the IC50 in assay [1] came out at 36 nM; in assay [3], 35 nM; in assay [4], 28 nM; in assay [5] it was 37 nM; in assay [7] it was 13 nM. The EC50 in assay [2] stood at 83 nM; in assay [6] it was 55 nM.

Take `COc1ccc(-c2ccc3nnc(-c4ccccc4OC)n3c2)cc1C` [Example 5, 6-(4-Methoxy-3-methylphenyl)-3-(2-methoxyphenyl)-[1,2,4]triazolo[4,3-a]pyridine]: the IC50 in assay [1] was 37 nM; in assay [3] it was 11 nM; in assay [4], 32 nM; in assay [5] it was 40 nM; in assay [7], 11 nM. Also, the concentration for a half-maximal effect (EC50) in assay [2] is 93 nM; in assay [6] it was 76 nM.

Take `COc1ccc(-c2ccc3nnc(-c4ccccc4OC)n3c2)cc1Cl` [Example 26, 6-(3-Chloro-4-methoxyphenyl)-3-(2-methoxyphenyl)-[1,2,4]triazolo[4,3-a]pyridine]: the IC50 in assay [1] stood at 23 nM; in assay [3] it was 33 nM; in assay [4] it was 23 nM; in assay [5], 52 nM; in assay [7], 12 nM. Moreover, the results for the EC50 in assay [2] and in assay [6] were 32 nM and 240 nM, respectively.

As to `COc1ccc(-c2ccc3nnc(-c4ccccc4OC)n3c2)cc1F` [Example 35, 6-(3-Fluoro-4-methoxyphenyl)-3-(2-methoxyphenyl)-[1,2,4]triazolo[4,3-a]pyridine], the IC50 in assay [1] was found to be 16 nM; in assay [3], 20 nM; in assay [4] it was 19 nM; in assay [5] it was 68 nM; in assay [7], 9.9 nM. For the same compound, the values for the EC50 in assay [2] and in assay [6] were 25 nM and 228 nM, respectively.

As to `COc1ccc(-c2ccc3nnc(-c4ccc(Cl)cc4OC)n3c2)cc1` [Example 57, 3-(4-Chloro-2-methoxyphenyl)-6-(4-methoxyphenyl)-[1,2,4]triazolo[4,3-a]pyridine], the IC50 in assay [1] was determined as 1.6 nM; in assay [3] it was 3.4 nM; in assay [4], 3.4 nM; in assay [5], 4.1 nM; in assay [7], 6.7 nM. Moreover, the EC50 amounted to 5 nM in assay [2] and 20 nM in assay [6].

`COc1ccc(-c2ccc3nnc(-c4ccc(Br)cc4OC)n3c2)cc1` [Example 59, 3-(4-Bromo-2-methoxyphenyl)-6-(4-methoxyphenyl)-[1,2,4]triazolo[4,3-a]pyridine]: the IC50 was 6.1 nM in assay [1]; 12 nM in assay [3]; 7.1 nM in assay [4]; 6.6 nM in assay [5]; 3.8 nM in assay [7]. Also, the EC50 in assay [6] amounted to 25 nM.

As for `COc1ccc(-c2ccc3nnc(-c4ccc(C)cc4OC)n3c2)cc1` [Example 66, 3-(2-Methoxy-4-methylphenyl)-6-(4-methoxyphenyl)-[1,2,4]triazolo[4,3-a]pyridine], the IC50 is 3.4 nM in assay [1]; 12 nM in assay [3]; 15 nM in assay [4]; 19 nM in assay [5]; 3.7 nM in assay [7]. The results for the EC50 in assay [2] and in assay [6] were 11 nM and 62 nM, respectively.

For the compound `COc1ccc(-c2ccc3nnc(-c4ccc([N+](=O)[O-])cc4OC)n3c2)cc1` [Example 70, 3-(2-Methoxy-4-nitrophenyl)-6-(4-methoxyphenyl)-[1,2,4]triazolo[4,3-a]pyridine], the IC50 was 4.4 nM in assay [1]; 6.7 nM in assay [3]; 22 nM in assay [4]; 13 nM in assay [5]; 9.9 nM in assay [7]. For the same compound, in assay [6], the EC50 worked out at 22 nM.

Take `COc1ccc(-c2ccc3nnc(-c4ccc(Cl)cc4OC)n3c2)cc1O` [Example 89, 3-(4-Chloro-2-methoxyphenyl)-6-(3-hydroxy-4-methoxyphenyl)-[1,2,4]triazolo[4,3-a]pyridine]: the IC50 in assay [1] was 1.1 nM; in assay [3], 1.6 nM; in assay [4], 1.4 nM; in assay [5], 0.84 nM; in assay [7] it was > 10000 nM. Also, the EC50 in assay [6] was 2.3 nM.

Broadly, the IC50 is the point on the concentration scale where inhibition reaches its midpoint. Low values mean inhibition by little substance, high ones a need for much substance. By EC50 is commonly meant the concentration that produces a half-maximal response.
